Test results as given in patent US20050119288A1, “Dosing schedule for a novel anticancer agent” (Pfizer Inc, priority 2003, published 2005).
Marks after values point to notes of the source that are not given here.

Legend:
[1] = Plasma concentration in FRE/erbB2 tumor-bearing mice
Method: The test compound was either administered using tail vein infusion or orally.
A 1.15 mg/ml solution of the test compound was infused IV at 550 μl/hr for 2 minute ramped infusions followed by 50 μl/hr for 15 min or 4 hour daily infusions. (Projection was based on Cl of the test compound). Athymic female mice bearing FRE/erbB2 tumors (˜100 mm^3 in size) were treated with vehicle, the test compound orally or the test compound intravenously. […] The study was carried out for 7 days. Plasma and tumor samples were isolated for PK and PD analysis at the termination of study.

[2] = biological target: erbB2 receptor autophosphorylation (Homo sapiens, UniProt P04626); test: p-erbB2 reduction in MDA-MB-453 tumors by ELISA; type: in vivo
Method: (§1) Study Design: Exponentially growing MDA-MB-453 cells (DMEM/F12 with 10% FBS, and pen/strep [Gibco]) were harvested and inoculated SC (5 million cells/animal) into female athymic mice. MDA-MB-453 tumor bearing mice (˜100 mm^3 in size, N=64) were randomized in 8 groups consisting 8 animals each. Animals were treated with vehicle (PO, QD or BID) or the test compound (PO, QD or BID) as described in Table 6. The tumor measurements and body weight changes were obtained on days 1, 3, 7, 10, 14, 17, 21, 24, and 29. Tumor volume was calculated by the following formula: Tumor volume (mm^3)═(W×W)/2×L (L=length & W=width). Blood samples (˜50 μl) were isolated at 0.5, 1, 2, 4 and 8 hrs after dosing on day 29 for PK-analysis. Tumors were isolated at 0.5 hr post-dosing on day 29 for PD-analysis by ELISA.

[3] = Body weight and tolerability, FRE/erbB2 study
Method: A 1.15 mg/ml solution of the test compound was infused IV at 550 μl/hr for 2 minute ramped infusions followed by 50 μl/hr for 15 min or 4 hour daily infusions. […] Athymic female mice bearing FRE/erbB2 tumors (˜100 mm^3 in size) were treated with vehicle, the test compound orally or the test compound intravenously. Body weight changes and tumor measurements were obtained at regular intervals (Days 1, 3, 5, and 7). The study was carried out for 7 days.

FRE/erbB2 tumors = test: FRE/erbB2 tumor growth in athymic mice; type: in vivo, murine; conditions: for % GI (% Growth Inhibition): day 7
From the text: (§2) The in vivo anti-tumor activity of the compounds for use in the methods of the present invention can be determined by the amount of inhibition of tumor growth by a test compound relative to a control. The tumor growth inhibitory effects of various compounds can be measured according to the method of Corbett T. H., et al., “Tumor Induction Relationships in Development of Transplantable Cancers of the Colon in Mice for Chemotherapy Assays, with a Note on Carcinogen Structure”, Cancer Res., 35, 2434-2439 (1975) and Corbett T. H., et al., “A Mouse Colon-tumor Model for Experimental Therapy”, Cancer Chemother. Rep. (Part 2)”, 5, 169-186 (1975), with slight modifications. Tumors can be induced in the left flank of mice by subcutaneous (sc) injection of 1-5 million log phase cultured tumor cells suspended in 0.1 ml RPMI 1640 medium. After sufficient time has elapsed for the tumors to become palpable (˜100-150 mm^3 in size/5-6 mm in diameter) the test animals (athymic female mice) are treated with test compound (formulated at a concentration of 10 to 15 mg/ml in 5 Gelucire or 0.5% methyl cellulose) by the intravenous (iv) or oral (po) route of administration once or twice daily for 7 to 29 consecutive days. In order to determine an anti-tumor effect, the tumor is measured in millimeters with a Vernier caliper across two diameters and the tumor size (mm^3) is calculated using the formula: Tumor size (mm^3)=(W×W)/2×L (L=length and W=width), according to the methods of Geran, R. I., et al. “Protocols for Screening Chemical Agents and Natural Products Against Animal Tumors and Other Biological Systems”, Third Edition, Cancer Chemother. Rep., 3, 1-104 (1972). Results are expressed as percent inhibition, according to the formula: Inhibition Growth (%)=[100-{(% Growth of Treated/% Growth of Control)×100}]. The flank site of tumor implantation provides reproducible dose/response effects for a variety of chemotherapeutic agents, and the method of measurement (tumor diameter) is a reliable method for assessing tumor growth rates.
An objective of the pre-clinical investigations was to determine whether the Cmax or area under the curve (AUC) of the test compound is critical for the anti-tumor efficacy. An additional goal was to establish a pharmacokinetics/pharmacodynamics (PK/PD) relationship in the FRE/erbB2 tumor model. The FRE/erbB2 is an engineered murine tumor model, which over-expresses human erbB2 with a trans-membrane mutation.

MDA-MB-453 tumors = test: MDA-MB-453 xenograft tumor growth in athymic mice; type: in vivo, human; conditions: PO; for % Growth inhibition: 29 days
From the text: as §2, §1
Statistical Analysis: ANOVA was conducted on the percentage growth data and planned comparisons were conducted between like-doses. The data were log transformed for the analysis due to the distribution of the values. The Dunnett-Tamahane procedure was used for the multiple comparison analysis.

Chain of erbB2 receptor autophosphorylation (P04626 23-1255): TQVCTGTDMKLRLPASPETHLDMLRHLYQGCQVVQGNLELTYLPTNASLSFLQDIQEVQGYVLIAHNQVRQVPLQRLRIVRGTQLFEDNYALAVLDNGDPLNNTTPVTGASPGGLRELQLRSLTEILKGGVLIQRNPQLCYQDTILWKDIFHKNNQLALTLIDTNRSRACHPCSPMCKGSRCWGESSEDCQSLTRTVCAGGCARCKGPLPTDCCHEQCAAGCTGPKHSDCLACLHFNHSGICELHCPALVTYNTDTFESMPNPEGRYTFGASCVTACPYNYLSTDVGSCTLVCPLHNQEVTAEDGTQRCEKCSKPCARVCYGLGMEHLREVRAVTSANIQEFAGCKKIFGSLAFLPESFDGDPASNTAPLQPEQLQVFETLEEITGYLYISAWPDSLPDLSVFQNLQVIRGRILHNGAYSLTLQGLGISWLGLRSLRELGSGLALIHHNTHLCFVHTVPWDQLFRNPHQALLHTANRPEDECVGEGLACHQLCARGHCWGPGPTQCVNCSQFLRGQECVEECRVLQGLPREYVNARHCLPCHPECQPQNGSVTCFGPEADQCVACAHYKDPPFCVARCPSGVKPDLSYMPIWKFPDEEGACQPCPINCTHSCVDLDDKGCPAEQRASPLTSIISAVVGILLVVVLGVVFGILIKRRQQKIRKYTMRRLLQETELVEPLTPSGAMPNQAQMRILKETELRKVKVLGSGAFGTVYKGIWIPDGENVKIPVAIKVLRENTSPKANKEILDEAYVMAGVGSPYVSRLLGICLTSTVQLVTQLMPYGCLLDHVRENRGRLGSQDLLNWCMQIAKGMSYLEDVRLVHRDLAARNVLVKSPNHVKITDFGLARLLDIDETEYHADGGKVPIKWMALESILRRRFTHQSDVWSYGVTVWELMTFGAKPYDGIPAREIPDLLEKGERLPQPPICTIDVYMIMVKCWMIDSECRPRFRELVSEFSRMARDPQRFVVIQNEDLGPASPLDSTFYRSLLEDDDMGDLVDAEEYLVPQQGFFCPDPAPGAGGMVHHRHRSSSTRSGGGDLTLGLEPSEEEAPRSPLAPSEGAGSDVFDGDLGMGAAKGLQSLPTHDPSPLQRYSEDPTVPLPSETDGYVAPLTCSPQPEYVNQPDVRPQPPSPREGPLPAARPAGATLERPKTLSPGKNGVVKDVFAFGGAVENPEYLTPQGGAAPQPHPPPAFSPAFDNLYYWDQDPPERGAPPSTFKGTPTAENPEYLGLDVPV

Structure (SMILES): COCC(=O)NC/C=C/c1ccc2ncnc(Nc3ccc(Oc4ccc(C)nc4)c(C)c3)c2c1 [Test Compound, E-2-Methoxy-N-(3-{4-(3-methyl-4-(6-methyl-pyridin-3-yloxy)-phenylamino)-quinazolin-6-yl}-allyl)-acetamide]
- Plasma Concentration (Mean ± SE) ([1]; 10.7 mg/kg IV, 4 hr/day): 473 ± 141 ng/mL
- Plasma Concentration (Mean ± SE) ([1]; 10.7 mg/kg IV, 4 hr/day, listed as test compound): ~500 ng/mL
- Plasma Concentration (Mean ± SE) ([1]; 25 mg/kg PO, QD, 0.5 h post-dosing on day 7): 1460 ± 170 ng/mL
- inhibition in vivo at 25 mg/kg ([2]; MDA-MB-453, po, 0.5 h, PO, BID 25 mg/kg (Total Daily Dose = 50 mg/kg), 0.5 hr post-dosing on day 29): 69%
- inhibition in vivo at 50 mg/kg ([2]; MDA-MB-453, po, 0.5 h, PO, BID 50 mg/kg (Total Daily Dose = 100 mg/kg), 0.5 hr post-dosing on day 29): 75%
- inhibition in vivo at 100 mg/kg ([2]; MDA-MB-453, po, 0.5 h, PO, BID 100 mg/kg (Total Daily Dose = 200 mg/kg), 0.5 hr post-dosing on day 29): 79%
- inhibition in vivo at 50 mg/kg ([2]; MDA-MB-453, po, 0.5 h, PO, QD 50 mg/kg, 0.5 hr post-dosing on day 29): 78%
- inhibition in vivo at 100 mg/kg ([2]; MDA-MB-453, po, 0.5 h, PO, QD 100 mg/kg, 0.5 hr post-dosing on day 29): 88%
- inhibition in vivo at 200 mg/kg ([2]; MDA-MB-453, po, 0.5 h, PO, QD 200 mg/kg, 0.5 hr post-dosing on day 29): 92%
- reduction of p-erbB2 ([2]; span over QD (50-200 mg/kg) and BID (25-100 mg/kg) dosings): 69-92%
- average body weight Day 1 ([3]; 1.4 mg/kg IV, QD, 15 min/day): 23 g
- average body weight Day 7 ([3]; 1.4 mg/kg IV, QD, 15 min/day): 24 g
- average body weight Day 1 ([3]; 10.7 mg/kg IV, 4 hr/day): 22 g
- average body weight Day 7 ([3]; 10.7 mg/kg IV, 4 hr/day): 22 g
- average body weight Day 1 ([3]; 25 mg/kg PO, QD): 21 g
- average body weight Day 7 ([3]; 25 mg/kg PO, QD): 22 g
- body weight loss or mortality ([3]; FRE/erbB2 study, 7 days): did not cause any body weight loss or mortality
- Tumor vol. Day 1 (Mean ± SE) (FRE/erbB2 tumors; 1.4 mg/kg IV, QD, 15 min/day): 121 ± 24 mm^3
- Tumor vol. Day 7 (Mean ± SE) (FRE/erbB2 tumors; 1.4 mg/kg IV, QD, 15 min/day): 749 ± 178 mm^3
- % GI (% Growth Inhibition) (FRE/erbB2 tumors; 1.4 mg/kg IV, QD, 15 min/day): 34%
- % GI (% Growth Inhibition) (FRE/erbB2 tumors; 1.4 mg/kg IV, QD, 15 min/day, listed as test compound): approximately 34%
- Tumor vol. Day 1 (Mean ± SE) (FRE/erbB2 tumors; 10.7 mg/kg IV, 4 hr/day): 117 ± 23 mm^3
- Tumor vol. Day 7 (Mean ± SE) (FRE/erbB2 tumors; 10.7 mg/kg IV, 4 hr/day): 273 ± 81 mm^3
- % GI (% Growth Inhibition) (FRE/erbB2 tumors; 10.7 mg/kg IV, 4 hr/day): 76%
- Tumor vol. Day 1 (Mean ± SE) (FRE/erbB2 tumors; 25 mg/kg PO, QD): 113 ± 18 mm^3
- Tumor vol. Day 7 (Mean ± SE) (FRE/erbB2 tumors; 25 mg/kg PO, QD): 531 ± 101 mm^3
- % GI (% Growth Inhibition) (FRE/erbB2 tumors; 25 mg/kg PO, QD, compare to Vehicle (IV) group): 54* %
- % GI (% Growth Inhibition) (FRE/erbB2 tumors; 25 mg/kg PO, QD, compare to Vehicle (IV) group, listed as test compound): Approximately 54%
- FRE tumor volume in treated mice relative to control (FRE/erbB2 tumors; 25 mg/kg orally once a day, seven days of treatment (FIG. 1)): about half of the control
- tumor volume increase relative to vehicle control (FRE/erbB2 tumors; about 10 mg/kg IV for seven days over a four hour period each day (FIG. 2)): less than 24%
- tumor volume increase relative to vehicle control (FRE/erbB2 tumors; rapid infusion of about 1.4 mg/kg daily over about 15 min/day (FIG. 2)): less than 66%
- % Growth inhibition (MDA-MB-453 tumors; BID 25 mg/kg (Total Daily Dose = 50 mg/kg)): 19%
- Tumor volume Day 1 (Mean ± SE) (MDA-MB-453 tumors; BID 25 mg/kg): 107 ± 4 mm^3
- Tumor volume Day 29 (Mean ± SE) (MDA-MB-453 tumors; BID 25 mg/kg): 252 ± 24 mm^3
- % Growth inhibition (MDA-MB-453 tumors; BID 50 mg/kg (Total Daily Dose = 100 mg/kg)): 66%
- Tumor volume Day 1 (Mean ± SE) (MDA-MB-453 tumors; BID 50 mg/kg): 107 ± 4 mm^3
- Tumor volume Day 29 (Mean ± SE) (MDA-MB-453 tumors; BID 50 mg/kg): 164 ± 13 mm^3
- % Growth inhibition (MDA-MB-453 tumors; BID 100 mg/kg (Total Daily Dose = 200 mg/kg)): 83%
- Tumor volume Day 1 (Mean ± SE) (MDA-MB-453 tumors; BID 100 mg/kg): 107 ± 4 mm^3
- Tumor volume Day 29 (Mean ± SE) (MDA-MB-453 tumors; BID 100 mg/kg): 137 ± 6 mm^3
- % Growth inhibition (MDA-MB-453 tumors; QD 50 mg/kg): 38%
- Tumor volume Day 1 (Mean ± SE) (MDA-MB-453 tumors; QD 50 mg/kg): 107 ± 4 mm^3
- Tumor volume Day 29 (Mean ± SE) (MDA-MB-453 tumors; QD 50 mg/kg): 213 ± 19 mm^3
- % Growth inhibition (MDA-MB-453 tumors; QD 100 mg/kg): 63%
- Tumor volume Day 1 (Mean ± SE) (MDA-MB-453 tumors; QD 100 mg/kg): 107 ± 4 mm^3
- Tumor volume Day 29 (Mean ± SE) (MDA-MB-453 tumors; QD 100 mg/kg): 175 ± 14 mm^3
- % Growth inhibition (MDA-MB-453 tumors; QD 200 mg/kg): 100%
- Tumor volume Day 1 (Mean ± SE) (MDA-MB-453 tumors; QD 200 mg/kg): 107 ± 4 mm^3
- Tumor volume Day 29 (Mean ± SE) (MDA-MB-453 tumors; QD 200 mg/kg): 108 ± 9 mm^3
